Source: the OligoGym collection
HELM strings list units from the 5' end as sugar, base in round brackets, then linkage (d deoxyribose, r ribose, m 2'-O-methyl, p phosphodiester). Strings are as the collection lists them; they lack the last nucleoside at the 3' end of the tested compound. [moe] = 2'-O-(2-methoxyethyl) (MOE); [sp] = phosphorothioate linkage; [m5C] = 5-methylcytosine

Each substance was assayed against UBE3A-ATS (assay: mouse, dose not given). Conditions: ASO.

Substance | 3 h FOB score [score 0-7]
RNA1{[moe](T)[sp].[moe](T)p.[moe](G)p.[moe](A)p.[moe](T)p.d([m5C])[sp].d(T)[sp].d(A)[sp].d(T)[sp].d(T)[sp].d(A)[sp].d(T)[sp].d(G)[sp].d(A)[sp].d(G)[sp].[moe](G)p.[moe](G)p.[moe]([m5C])[sp].[moe](A)}$$$$ (last 3' nucleoside missing) | 4.7
RNA1{[moe](T)[sp].[moe](T)p.[moe](G)p.[moe](G)[sp].d(T)[sp].d([m5C])[sp].d(A)[sp].d(T)[sp].d([m5C])[sp].d(T)[sp].d([m5C])[sp].d(G)[sp].[moe](G)p.[moe](G)p.[moe](T)p.[moe](A)[sp].[moe](T)}$$$$ (last 3' nucleoside missing) | 2.3
RNA1{[moe](T)[sp].[moe](T)p.[moe](G)p.[moe](G)p.[moe](T)[sp].d([m5C])[sp].d(A)[sp].d(T)[sp].d([m5C])[sp].d(T)[sp].d([m5C])[sp].d(G)[sp].d(G)[sp].[moe](G)p.[moe](T)p.[moe](A)[sp].[moe](T)}$$$$ (last 3' nucleoside missing) | 5
RNA1{[moe](T)[sp].[moe](T)p.[moe](G)p.[moe](G)p.[moe](T)p.[moe]([m5C])[sp].d(A)[sp].d(T)[sp].d([m5C])[sp].d(T)[sp].d([m5C])[sp].d(G)[sp].d(G)[sp].d(G)[sp].[moe](T)p.[moe](A)[sp].[moe](T)}$$$$ (last 3' nucleoside missing) | 6.7
RNA1{[moe](T)[sp].[moe](T)p.[moe](G)p.[moe](G)p.[moe](T)p.[moe]([m5C])p.d(A)[sp].d(T)[sp].d([m5C])[sp].d(T)[sp].d([m5C])[sp].d(G)[sp].d(G)[sp].d(G)[sp].d(T)[sp].d(A)[sp].[moe](T)p.[moe](A)[sp].[moe](T)}$$$$ (last 3' nucleoside missing) | 6.5
RNA1{[moe](T)[sp].[moe](T)p.[moe](G)p.[moe](G)p.[moe](T)p.d(A)[sp].d(T)[sp].d(T)[sp].d(G)[sp].d(A)[sp].d([m5C])[sp].d(A)[sp].d([m5C])[sp].d([m5C])[sp].d(T)[sp].[moe]([m5C])p.[moe]([m5C])p.[moe](A)[sp].[moe](A)}$$$$ (last 3' nucleoside missing) | 1
RNA1{[moe](T)[sp].[moe](T)p.[moe](G)p.[moe](G)p.[moe](T)p.d([m5C])[sp].d(A)[sp].d(T)[sp].d([m5C])[sp].d(T)[sp].d([m5C])[sp].d(G)[sp].d(G)[sp].d(G)[sp].d(T)[sp].[moe](A)p.[moe](T)p.[moe](A)[sp].[moe](T)}$$$$ (last 3' nucleoside missing) | 5.7
RNA1{[moe](T)[sp].[moe](T)p.[moe](G)p.[moe](G)p.[moe]([m5C])p.d(A)[sp].d([m5C])[sp].d(A)[sp].d([m5C])[sp].d([m5C])[sp].d(T)[sp].d(G)[sp].d(G)[sp].d(A)[sp].d(T)[sp].[moe](T)p.[moe](T)p.[moe]([m5C])[sp].[moe](A)}$$$$ (last 3' nucleoside missing) | 2
RNA1{[moe](T)[sp].[moe](T)p.[moe](G)p.[moe](G)p.[moe]([m5C])p.d(T)[sp].d(T)[sp].d(T)[sp].d(A)[sp].d(T)[sp].d(A)[sp].d([m5C])[sp].d(T)[sp].d(T)[sp].d(T)[sp].[moe](A)p.[moe]([m5C])p.[moe]([m5C])[sp].[moe]([m5C])}$$$$ (last 3' nucleoside missing) | 1
RNA1{[moe](T)[sp].[moe](T)p.[moe](G)p.[moe](G)p.d(T)[sp].d([m5C])[sp].d(A)[sp].d(T)[sp].d([m5C])[sp].d(T)[sp].d([m5C])[sp].d(G)[sp].d(G)[sp].d(G)[sp].[moe](T)p.[moe](A)p.[moe](T)p.[moe](A)[sp].[moe](T)}$$$$ (last 3' nucleoside missing) | 4
RNA1{[moe](T)[sp].[moe](T)p.[moe](G)p.[moe](T)p.[moe](A)p.d(G)[sp].d([m5C])[sp].d(T)[sp].d(A)[sp].d(T)[sp].d(A)[sp].d(G)[sp].d(G)[sp].d(T)[sp].d(G)[sp].[moe](T)p.[moe]([m5C])p.[moe](A)[sp].[moe]([m5C])}$$$$ (last 3' nucleoside missing) | 4
RNA1{[moe](T)[sp].[moe](T)p.[moe](G)p.[moe]([m5C])p.[moe](T)p.[moe](G)p.d(A)[sp].d(T)[sp].d([m5C])[sp].d(A)[sp].d([m5C])[sp].d(A)[sp].d(T)[sp].d(T)[sp].d(A)[sp].d([m5C])[sp].[moe]([m5C])p.[moe]([m5C])[sp].[moe](A)}$$$$ (last 3' nucleoside missing) | 1
RNA1{[moe](T)[sp].[moe](T)p.[moe](G)p.[moe]([m5C])p.[moe](T)p.d(G)[sp].d(A)[sp].d(T)[sp].d([m5C])[sp].d(A)[sp].d([m5C])[sp].d(A)[sp].d(T)[sp].d(T)[sp].d(A)[sp].[moe]([m5C])p.[moe]([m5C])p.[moe]([m5C])[sp].[moe](A)}$$$$ (last 3' nucleoside missing) | 0
RNA1{[moe](T)[sp].[moe](T)p.[moe](G)p.[moe]([m5C])p.d(T)[sp].d(G)[sp].d(A)[sp].d(T)[sp].d([m5C])[sp].d(A)[sp].d([m5C])[sp].d(A)[sp].d(T)[sp].d(T)[sp].[moe](A)p.[moe]([m5C])p.[moe]([m5C])p.[moe]([m5C])[sp].[moe](A)}$$$$ (last 3' nucleoside missing) | 0
RNA1{[moe](T)[sp].[moe](T)p.[moe](T)p.[moe](A)p.[moe](G)p.d(G)[sp].d(T)[sp].d([m5C])[sp].d(A)[sp].d(A)[sp].d([m5C])[sp].d([m5C])[sp].d(A)[sp].d(A)[sp].d(T)[sp].[moe](T)p.[moe](T)p.[moe](G)[sp].[moe]([m5C])}$$$$ (last 3' nucleoside missing) | 0
RNA1{[moe](T)[sp].[moe](T)p.[moe](T)p.[moe](A)p.[moe](T)p.d(A)[sp].d(G)[sp].d(G)[sp].d(G)[sp].d(T)[sp].d(G)[sp].d(G)[sp].d(T)[sp].d(T)[sp].d(G)[sp].[moe](G)p.[moe](T)p.[moe](T)[sp].[moe]([m5C])}$$$$ (last 3' nucleoside missing) | 6
RNA1{[moe](T)[sp].[moe](T)p.[moe](T)p.[moe](A)p.[moe](T)p.d(A)[sp].d([m5C])[sp].d(T)[sp].d(T)[sp].d(T)[sp].d(A)[sp].d([m5C])[sp].d([m5C])[sp].d([m5C])[sp].d(A)[sp].[moe](A)p.[moe]([m5C])p.[moe](T)[sp].[moe](T)}$$$$ (last 3' nucleoside missing) | 0
RNA1{[moe](T)[sp].[moe](T)p.[moe](T)p.[moe](A)p.[moe](T)p.d(T)[sp].d(G)[sp].d(G)[sp].d(T)[sp].d([m5C])[sp].d(A)[sp].d(T)[sp].d([m5C])[sp].d(T)[sp].d([m5C])[sp].[moe](G)p.[moe](G)p.[moe](G)[sp].[moe](T)}$$$$ (last 3' nucleoside missing) | 3.7
RNA1{[moe](T)[sp].[moe](T)p.[moe](T)p.[moe](G)p.[moe](G)p.d(T)[sp].d(A)[sp].d(T)[sp].d(T)[sp].d(G)[sp].d(A)[sp].d([m5C])[sp].d(A)[sp].d([m5C])[sp].d([m5C])[sp].[moe](T)p.[moe]([m5C])p.[moe]([m5C])[sp].[moe](A)}$$$$ (last 3' nucleoside missing) | 3.7
RNA1{[moe](T)[sp].[moe](T)p.[moe](T)p.[moe](G)p.[moe](G)p.d([m5C])[sp].d(T)[sp].d(T)[sp].d(T)[sp].d(A)[sp].d(T)[sp].d(A)[sp].d([m5C])[sp].d(T)[sp].d(T)[sp].[moe](T)p.[moe](A)p.[moe]([m5C])[sp].[moe]([m5C])}$$$$ (last 3' nucleoside missing) | 0
RNA1{[moe](T)[sp].[moe](T)p.[moe](T)p.[moe](G)p.[moe](T)p.d(A)[sp].d(G)[sp].d([m5C])[sp].d(T)[sp].d(A)[sp].d(T)[sp].d(A)[sp].d(G)[sp].d(G)[sp].d(T)[sp].[moe](G)p.[moe](T)p.[moe]([m5C])[sp].[moe](A)}$$$$ (last 3' nucleoside missing) | 2.3
RNA1{[moe](T)[sp].[moe](T)p.[moe](T)p.[moe](G)p.[moe]([m5C])p.d(T)[sp].d(T)[sp].d(T)[sp].d(T)[sp].d([m5C])[sp].d(A)[sp].d(G)[sp].d(T)[sp].d([m5C])[sp].d(A)[sp].[moe](G)p.[moe](G)p.[moe](T)[sp].[moe](A)}$$$$ (last 3' nucleoside missing) | 1
RNA1{[moe](T)[sp].[moe](T)p.[moe](T)p.[moe](T)p.[moe](A)p.d(T)[sp].d(T)[sp].d(G)[sp].d(G)[sp].d(T)[sp].d([m5C])[sp].d(A)[sp].d(T)[sp].d([m5C])[sp].d(T)[sp].[moe]([m5C])p.[moe](G)p.[moe](G)[sp].[moe](G)}$$$$ (last 3' nucleoside missing) | 2.3
RNA1{[moe](T)[sp].[moe](T)p.[moe](T)p.[moe](T)p.[moe](T)p.[moe]([m5C])p.d([m5C])[sp].d(A)[sp].d(T)[sp].d(T)[sp].d(T)[sp].d(T)[sp].d(T)[sp].d([m5C])[sp].d(T)[sp].d([m5C])[sp].[moe](T)p.[moe](T)[sp].[moe](A)}$$$$ (last 3' nucleoside missing) | 1
RNA1{[moe](T)[sp].[moe](T)p.[moe](T)p.[moe](T)p.[moe](T)p.d([m5C])[sp].d([m5C])[sp].d(A)[sp].d(T)[sp].d(T)[sp].d(T)[sp].d(T)[sp].d(T)[sp].d([m5C])[sp].d(T)[sp].[moe]([m5C])p.[moe](T)p.[moe](T)[sp].[moe](A)}$$$$ (last 3' nucleoside missing) | 1.3
RNA1{[moe](T)[sp].[moe](T)p.[moe](T)p.[moe](T)p.d(T)[sp].d([m5C])[sp].d([m5C])[sp].d(A)[sp].d(T)[sp].d(T)[sp].d(T)[sp].d(T)[sp].d(T)[sp].d([m5C])[sp].[moe](T)p.[moe]([m5C])p.[moe](T)p.[moe](T)[sp].[moe](A)}$$$$ (last 3' nucleoside missing) | 1
RNA1{[moe](T)[sp].[moe](T)p.[moe](T)p.[moe]([m5C])p.[moe](A)p.d(T)[sp].d([m5C])[sp].d(A)[sp].d(G)[sp].d(T)[sp].d(T)[sp].d(A)[sp].d(G)[sp].d(T)[sp].d([m5C])[sp].[moe](A)p.[moe](G)p.[moe](G)[sp].[moe](T)}$$$$ (last 3' nucleoside missing) | 2
